{"source": "patent US20230381173A1", "about": "“METHODS AND PHARMACEUTICAL COMPOSITION FOR TREATING DISEASES” (TONGLI BIOMEDICAL CO. LTD., priority 2021, published 2023)", "key": {"[1]": {"settings": "at the same dose level; cited from earlier work"}, "[2]": {"settings": "cited from earlier work"}, "isolated rat atria": {"system": "isolated rat atria", "settings": "cited from earlier work"}, "[3]": {"settings": "rabbit, in vivo; cited from earlier work"}, "Dactylogyrus vastator": {"system": "Dactylogyrus vastator", "experiment": "Bath treatment of Dactylogyrus infected goldfish", "assay_type": "in vivo, goldfish (Carassius auratus)", "settings": "bath 1.5 mg/L, 48 hours", "procedure": "(R)-praziquantel Form B was tested for use in treating fish parasites. Specifically, the effect of bath treatment of monogenean Dactylogyrus infected goldfish (Carassius auratus) was investigated. […] Two days after treatment, the number of attached parasites in whole gills of each fish was counted. Reduction rate=(average survival of worms in the blank control group−average survival of worms in the administration group)/average survival of worms in the blank control group×100%."}, "Neobenedenia melleni": {"system": "Neobenedenia melleni", "experiment": "Antiparasitic activity of medicated feed in infected yellow croaker", "assay_type": "in vivo, large yellow croaker (Larimichthys crocea)", "settings": "for Infectivity: Day 3", "text": "The purpose of this experiment was to evaluate palatability and efficacy of (R)-praziquantel Form B (R-PZQ) against Monogenean trematode infection (Neobenedenia melleni) in large yellow croaker (Larimichthys crocea). Praziquantel (PZQ) was used as a positive control.\nAll experimental yellow croakers (about 50-75 g BW/fish) were infected with Neobenedenia melleni, and the average infection intensity was 100-120 parasites/fish.\nFish were fed 2 times a day (morning and afternoon) at up to 4% BW per day. The medicated granular feed was prepared as descripted under section “LIQUID COMPOSITIONS AND SOLID FORMULATIONS CONTAINING (R)-PRAZIQUANTEL FORM B FOR AQUACULTURE AND FISH”. Briefly, the powders of (R)-praziquantel Form B ([…]) or praziquantel (PZQ) were mixed with 4% (v/v) squid oil. The resulting squid oil was subsequently top-dressed onto commercial feed granules. Control feed was prepared by top-dressing with 4% squid oil onto the feed granules without containing the compounds.\nDuring treatment, amount and time to consume the medicated (or control) feed by the fishes in each group were observed and scored for palatability as poor (+) to excellent (+++++). Two days after dosing (Day 3), each fish was soaked in water individually and the number of parasites was recorded separately."}, "[4]": {"experiment": "Long-term stability of (R)-praziquantel Form B API", "assay_type": "physicochemical", "settings": "for Appearance / Assay(Anhydrous basis) / Chiral Purity / Purity / Related Substances, largest single impurity (RRT = 0.60) / Related Substances, total impurities / XRPD Characterization / Water Content: 25° C., 60% relative humidity; for Water Content: Karl Fischer", "procedure": "Accurately weigh about 0.1-0.5 g of sample of Form B and transfer it to KF titrator container (aldehyde ketone Volumetric method), measure the samples according to USP<921>. The active pharmaceutical ingredient (API) of Form B was stored for 18 months under different storage conditions: 25° C. and 60% relative humidity, 30° C. and 65% relative humidity, and 40° C. and 75% relative humidity, in a sealed and open condition. […] In some embodiments, under various storage conditions the anhydrous API provided herein can be stable and water content controlled under 0.5% and monitored by KF for at least, or at least about, 3 months, 6 months, 9 months, 12 months, 18 months, 24 months and 36 months. For example, under storage conditions of 25° C. and 60% relative humidity, the tablets and API provided herein can be stable for at least, or at least about, 3 months, 6 months, 9 months, 12 months and 18 months."}, "[5]": {"experiment": "Accelerated solid state stability of anhydrate (Form B) and hemihydrate (R)-praziquantel, open and closed condition", "assay_type": "physicochemical", "procedure": "The Accelerated Solid State Stability of the Anhydrate (Form B) and Hemihydrate (R)-Praziquantel in an Open and Closed Condition […] The accelerated solid-state stability of the anhydrate and hemihydrate (R)-praziquantel was determined by storing approximately 1.0 g of the material in a glass dish at a) the anhydrate at 45° C./75% (RH), closed, for 3 months. and b) 45° C./75% Relative Humidity (RH), open exposure condition, for 3 months. The material was assayed by KF, TGA and HPLC for final content and degradation products."}, "[6]": {"experiment": "Physicochemical characterization of Form B (hygroscopicity)"}, "[7]": {"settings": "highest concentration of 10 mg/L", "procedure": "Goldfish were acclimatized to 22° C. water (pH 7˜7.5, dissolved oxygen>5 mL/L) and were challenged with Dactylogyrus vastator. When infection rate and infection intensity reached 100% and over 10 parasite/whole gills of each fish within about 10 days, the fish were then treated with various concentrations of the (R)-praziquantel Form B or praziquantel for 48 hours by bath. Infected fish […] were used as a control group. 20 infected fish were placed per concentration for each treatment."}, "[8]": {"settings": "medicated feed 75 mg/kg × 2 days"}, "[9]": {"settings": "medicated feed 37 mg/kg × 2 days"}, "[10]": {"settings": "Closed condition, 45° C./75% RH, 3 months"}, "[11]": {"settings": "Open, 45° C., RH75%, T3 (3 months)"}, "[12]": {"settings": "Opened condition, 45° C./75% RH, 3 months"}, "[13]": {"settings": "Sealed, 45° C., RH75%, T3 (3 months)"}}, "data": [{"compound": "O=C(C1CCCCC1)N1CC(=O)N2CCc3ccccc3[C@@H]2C1", "note": "[(R)-praziquantel]", "values": [{"measurement": "Anthelmintic efficacy", "setting": "[1]", "value": "better than that of praziquantel"}, {"measurement": "Observed side effects", "setting": "[2]; after oral administration (drowsiness, gastric nausea or photosensitivity rash)", "value": "relatively mild"}, {"measurement": "Serious adverse reactions", "setting": "[2]; after oral administration", "value": "No serious adverse reactions"}, {"measurement": "Cardiac toxicity", "setting": "isolated rat atria", "value": "lower cardiac toxicity than (S)-praziquantel"}, {"measurement": "Cardiac toxicity", "setting": "[3]", "value": "lower cardiac toxicity than (S)-praziquantel"}]}, {"compound": "O=C(C1CCCCC1)N1CC(=O)N2CCc3ccccc3[C@H]2C1", "note": "[(S)-praziquantel, reference compound]", "values": [{"measurement": "Anthelmintic efficacy", "setting": "[1]", "value": "almost no activity"}]}, {"compound": "O=C(C1CCCCC1)N1CC(=O)N2CCc3ccccc3C2C1", "note": "(racemic) [Praziquantel, reference compound]", "values": [{"measurement": "Infection rate", "setting": "Dactylogyrus vastator", "value": 100, "unit": "%"}, {"measurement": "Worm reduction", "setting": "Dactylogyrus vastator", "value": 45, "unit": "%"}, {"measurement": "Mortality", "setting": "Neobenedenia melleni; [8]", "value": 3, "unit": "%"}, {"measurement": "Infectivity", "setting": "Neobenedenia melleni; [8]", "value": 54, "unit": "%"}]}, {"compound": "O=C(C1CCCCC1)N1CC(=O)N2CCc3ccccc3[C@@H]2C1", "note": "[(R)-praziquantel Form B, (R)-2-(cyclohexanecarbonyl)-2,3,6,7-tetrahydro-1H-pyrazino[2,1-a] isoquinolin-4(11bH)-one]", "values": [{"measurement": "Infection rate", "setting": "Dactylogyrus vastator", "value": 100, "unit": "%"}, {"measurement": "Worm reduction", "setting": "Dactylogyrus vastator", "value": 98, "unit": "%"}, {"measurement": "Mortality", "setting": "Neobenedenia melleni; [9]", "value": 0, "unit": "%"}, {"measurement": "Infectivity", "setting": "Neobenedenia melleni; [9]", "value": 35, "unit": "%"}, {"measurement": "Mortality", "setting": "Neobenedenia melleni; [8]", "value": 0, "unit": "%"}, {"measurement": "Infectivity", "setting": "Neobenedenia melleni; [8]", "value": 6, "unit": "%"}, {"measurement": "Antiparasitic efficacy", "setting": "Neobenedenia melleni; oral treatment", "value": "dose dependent and superior to PZQ"}, {"measurement": "Storage stability of API", "setting": "[4]; 18 months, 25° C./60% RH, 30° C./65% RH, 40° C./75% RH, sealed and open", "value": "good stability"}, {"measurement": "Appearance", "setting": "[4]; 18 M", "value": "White solid"}, {"measurement": "Assay(Anhydrous basis)", "setting": "[4]; 18 M", "value": 101.00, "unit": "%"}, {"measurement": "Chiral Purity", "setting": "[4]; 18 M", "value": 100.00, "unit": "%"}, {"measurement": "Purity", "setting": "[4]; 18 M", "value": 99.90, "unit": "%"}, {"measurement": "Related Substances, largest single impurity (RRT = 0.60)", "setting": "[4]; 18 M", "value": "RRT = 0.60: 0.03%"}, {"measurement": "Related Substances, total impurities", "setting": "[4]; 18 M", "value": 0.11, "unit": "%"}, {"measurement": "XRPD Characterization", "setting": "[4]; 18 M", "value": "Conforms"}, {"measurement": "Appearance", "setting": "[4]; Initial (0 M)", "value": "White solid"}, {"measurement": "Assay(Anhydrous basis)", "setting": "[4]; Initial (0 M)", "value": 99.80, "unit": "%"}, {"measurement": "Chiral Purity", "setting": "[4]; Initial (0 M)", "value": 100.00, "unit": "%"}, {"measurement": "Purity", "setting": "[4]; Initial (0 M)", "value": 99.90, "unit": "%"}, {"measurement": "Related Substances, largest single impurity (RRT = 0.60)", "setting": "[4]; Initial (0 M)", "value": "RRT = 0.60: 0.04%"}, {"measurement": "Related Substances, total impurities", "setting": "[4]; Initial (0 M)", "value": 0.10, "unit": "%"}, {"measurement": "XRPD Characterization", "setting": "[4]; Initial (0 M)", "value": "Conforms"}, {"measurement": "Water Content", "setting": "[4]; 18 M", "value": 0.27, "unit": "%"}, {"measurement": "Water Content", "setting": "[4]; Initial (0 M)", "value": 0.50, "unit": "%"}, {"measurement": "Degradation (HPLC)", "setting": "[5]; [10]", "value": "no significant degradation observed"}, {"measurement": "Water uptake (KF)", "setting": "[5]; [10]", "value": "≤ 0.3", "unit": "%"}, {"measurement": "Water content (KF)", "setting": "[5]; Open, 45° C., RH75%, T0, listed as Anhydrate", "value": 1.30, "unit": "%"}, {"measurement": "Water content (KF)", "setting": "[5]; Open, 45° C., RH75%, T0, listed as anhydrate", "value": 1.3, "unit": "%"}, {"measurement": "Impurities by HPLC, RRT 0.6", "setting": "[5]; [11]", "value": "RRT 0.6: 0.04%"}, {"measurement": "Water content (KF)", "setting": "[5]; Open, 45° C., RH75%, T3 (3 months), listed as Anhydrate", "value": 2.50, "unit": "%"}, {"measurement": "Water content (KF)", "setting": "[5]; Open, 45° C., RH75%, T3 (3 months), listed as anhydrate", "value": "about 2.5%"}, {"measurement": "Degradation (HPLC)", "setting": "[5]; [12]", "value": "no significant degradation observed"}, {"measurement": "Impurity peaks found (HPLC)", "setting": "[5]; [12]", "value": "none of impurity peak found"}, {"measurement": "Water content (KF)", "setting": "[5]; Sealed, 45° C., RH75%, T0", "value": 0.24, "unit": "%"}, {"measurement": "Impurities by HPLC, RRT 0.6", "setting": "[5]; [13]", "value": "RRT 0.6: 0.04%"}, {"measurement": "Water content (KF)", "setting": "[5]; [13]", "value": 0.32, "unit": "%"}, {"measurement": "Hygroscopicity", "setting": "[6]", "value": "slightly hygroscopic"}, {"measurement": "Toxic effect in the treated fish", "setting": "[7]", "value": "no toxic effect"}]}, {"compound": "O.O=C(C1CCCCC1)N1CC(=O)N2CCc3ccccc3[C@@H]2C1.O=C(C1CCCCC1)N1CC(=O)N2CCc3ccccc3[C@@H]2C1", "note": "[Hemihydrate, reference compound]", "values": [{"measurement": "Water content (KF)", "setting": "[5]; Open, 45° C., RH75%, T0", "value": 2.80, "unit": "%"}, {"measurement": "Impurities by HPLC, RRT 0.6", "setting": "[5]; [11]", "value": "RRT0.6: 0.17%,"}, {"measurement": "Impurities by HPLC, RRT 0.9", "setting": "[5]; [11]", "value": "RRT0.9: 0.13%"}, {"measurement": "Water content (KF)", "setting": "[5]; [11]", "value": 2.50, "unit": "%"}, {"measurement": "Impurity peaks found (HPLC)", "setting": "[5]; [12]", "value": "two"}, {"measurement": "Percent total impurities", "setting": "[5]; [12]", "value": "exceed 0.3%"}]}]}
